From patent US11981752B2, “Tumor associated monocyte/macrophage binding peptide and methods of use thereof” (Sanford Burnham Prebys Medical Discovery Institute, priority 2017, dated 2024)
pIC50: −log10 of the molar value. “Also recorded” adds a separate entry of the source. Read-outs that look alike come from different tables or passages of the source. Bridge positions count the residues as written; N and C are the ends. Ends that are not written are not given here.

Assays:
PI3Kγ = PI3Kγ (Homo sapiens, UniProt P48736); conditions: cited from earlier work
ATR = ATR (Homo sapiens, UniProt Q13535); conditions: cited from earlier work
[1] = test system: other kinases (named per endpoint); conditions: cited from earlier work
PI3Kδ = PI3Kδ (Homo sapiens, UniProt O00329); conditions: cited from earlier work
DNA-PK = DNA-PK (Homo sapiens, UniProt P78527); conditions: cited from earlier work
mTOR = mTOR (Homo sapiens, UniProt P42345); conditions: cited from earlier work
PI3Kβ = PI3Kβ (Homo sapiens, UniProt P42338); conditions: cited from earlier work
class I PI3K isoforms = conditions: cited from earlier work
[2] = test system: macrophages in atherosclerosis plaques; conditions: ApoE null mice fed high fat diet (She et al. 2016); cited from earlier work
tumor = conditions: systemic treatment of mice; cited from earlier work
atherosclerotic plaque = conditions: systemic treatment of mice; cited from earlier work
4T1 breast tumors = assay: In vivo peptide homing in mice bearing orthotopic 4T1 breast tumors; conditions: 1 hour
Method: (§1) To produce 4T1 tumors, 1×10^6 4 T1 cells (ATCC) suspended in 100 μl of PBS were injected into the mammary fat pad of wild type Balb/c female mice. C57BL/6 mice bearing atherosclerosis plaques were generated as previously described (She et al., Journal of Controlled Release 238:212-20 (2016)). Animal experimentation was performed according to the procedures approved by the Animal Research Committee at the Sanford-Burnham Medical Research Institute.
(§2) Orthotopic 4T1 tumors were used when they reached 0.5-1 cm in size. For tumor or plaque homing, 200 μg FAM-labeled peptide dissolved in 100 μl PBS was injected intravenously into mice. After 1 hour of circulation, the mice were euthanized by cardiac perfusion with PBS under anesthesia, and tumors and other organs (or plaques on the aorta) were dissected and analyzed for peptide homing.
In vivo tissue distribution of CRV peptide in tumor mice was investigated. FAM-CRV was injected intravenously into mice bearing 4T1 breast tumors. After 1 hour, perfusion through the heart was performed to eliminate any circulating peptide. Heart, lung, liver, kidney, spleen, and tumor were excised and the FAM-CRV signal was imaged with an illuminator.
CRV homing in tumor mice was investigated. Mice with orthotopic 4T1 breast tumors (n=2) were intravenously injected with 100 μg of CRV peptide labeled with a green fluorophor (FAM). The peptide was allowed to circulate for 1 hour, and the mice were perfused through the left ventricle of the heart to eliminate any peptide remaining in the blood. Major organs were excised and examined under visible and fluorescent light.

J774A.1 cells [3] = assay: In vitro peptide binding, flow cytometry, J774A.1; format: cell-based, mouse
Method: (§3) J774A.1 and RAW264.7 cells were obtained from ATCC. Cells were maintained in Dulbecco's Modified Eagle Medium supplemented with 10% fetal bovine serum, 1% Glutamine-Pen-Strep and […].
(§4) Cells were incubated on a rotator with peptides added at a final concentration of 10 μM in DMEM plus 1% BSA. For inhibition studies, biotin-CRV was added to a final concentration of 500 μM together with FAM-CRV (10 μM final). After 1 h at 4° C., cells were washed 3 times with PBS followed by flow cytometry analysis.
(§5) The peptide corresponding to the sequence of the top clone: […] (referred to as CRV herein; SEQ ID NO:1) was then synthesized. A green carboxy-fluorescein label (FAM) was added to the N-terminus of CRV to aid detection. CRV binding to two macrophage cell lines, J774A.1 and Raw264.7 was tested. Control peptides used were ARA ([…]; SEQ ID NO:8) and […] (SEQ ID NO:9).

[4] = test system: macrophages in atherosclerosis plaques; assay: In vivo homing to atherosclerosis plaques; design: species or system mice; conditions: 200 μg FAM-labeled peptide intravenously, 1 hour of circulation
Method: as §1, §2
Therefore, whether CRV also binds to macrophages in this model was investigated. 200 μg FAM-labeled peptide or control peptide ARA, each dissolved in 100 μl PBS, was injected intravenously into mice. After 1 hour of circulation, the mice were euthanized by cardiac perfusion with PBS under anesthesia, and tumors and other organs (or plaques on the aorta) were dissected and imaged with illuminator for FAM signal.

[5] = test system: macrophages in sites of infection; assay: Targeting of macrophages in sites of infection; format: in vivo; conditions: microbial, viral, or bacterial infection; no method given
[6] = test system: cells isolated from 4T1 tumors; assay: Ex vivo binding of FAM-CRV to cells isolated from 4T1 tumors; format: cell-based, mice; conditions: FAM-CRV 10 μM, 1-hour at 4° C., flow cytometry
Method: To determine the identity of the cells that FAM-CRV localized in within the tumors, ex vivo binding of FAM-CRV to cells isolated from tumors was studied. Tumors were excised from mice bearing 4T1 breast cancer and dissociated into single cell populations using MACS dissociation kit according to the manufacturer's instructions. FAM-CRV was added to a final concentration of 10 μM into a solution of DMEM+1% BSA containing 2 million tumor cells. After 1-hour incubation at 4° C., cells were stained with various immune cell markers. The markers tested include: CD11b (pan-monocyte/macrophage marker), Ly6-G (granulocytic monocyte), CCR2 (infiltrating monocytes), F4/80, CD4 (helper T cells), CD8 (cytotoxic T cells). Cells were stained for the indicated markers and subjected to flow cytometry analysis. The analysis was performed using antibodies to the indicated macrophage markers on CRV-positive cells.

Raw264.7 cells = assay: In vitro peptide binding, flow cytometry, Raw264.7; format: cell-based; conditions: FAM-labeled peptide 10 μM, 1 h at 4° C., controls ARA, GGSGGSKG
Method: as §3, §4, §5

J774A.1 cells [7] = assay: Phage display screening (CX7C T7 library) on J774A.1 cells; conditions: high throughput sequencing of phage clones bound to J774A.1 cells after three rounds of enrichment; terminal cysteines omitted

Sequence of PI3Kγ (P48736 whole entry, species assumed): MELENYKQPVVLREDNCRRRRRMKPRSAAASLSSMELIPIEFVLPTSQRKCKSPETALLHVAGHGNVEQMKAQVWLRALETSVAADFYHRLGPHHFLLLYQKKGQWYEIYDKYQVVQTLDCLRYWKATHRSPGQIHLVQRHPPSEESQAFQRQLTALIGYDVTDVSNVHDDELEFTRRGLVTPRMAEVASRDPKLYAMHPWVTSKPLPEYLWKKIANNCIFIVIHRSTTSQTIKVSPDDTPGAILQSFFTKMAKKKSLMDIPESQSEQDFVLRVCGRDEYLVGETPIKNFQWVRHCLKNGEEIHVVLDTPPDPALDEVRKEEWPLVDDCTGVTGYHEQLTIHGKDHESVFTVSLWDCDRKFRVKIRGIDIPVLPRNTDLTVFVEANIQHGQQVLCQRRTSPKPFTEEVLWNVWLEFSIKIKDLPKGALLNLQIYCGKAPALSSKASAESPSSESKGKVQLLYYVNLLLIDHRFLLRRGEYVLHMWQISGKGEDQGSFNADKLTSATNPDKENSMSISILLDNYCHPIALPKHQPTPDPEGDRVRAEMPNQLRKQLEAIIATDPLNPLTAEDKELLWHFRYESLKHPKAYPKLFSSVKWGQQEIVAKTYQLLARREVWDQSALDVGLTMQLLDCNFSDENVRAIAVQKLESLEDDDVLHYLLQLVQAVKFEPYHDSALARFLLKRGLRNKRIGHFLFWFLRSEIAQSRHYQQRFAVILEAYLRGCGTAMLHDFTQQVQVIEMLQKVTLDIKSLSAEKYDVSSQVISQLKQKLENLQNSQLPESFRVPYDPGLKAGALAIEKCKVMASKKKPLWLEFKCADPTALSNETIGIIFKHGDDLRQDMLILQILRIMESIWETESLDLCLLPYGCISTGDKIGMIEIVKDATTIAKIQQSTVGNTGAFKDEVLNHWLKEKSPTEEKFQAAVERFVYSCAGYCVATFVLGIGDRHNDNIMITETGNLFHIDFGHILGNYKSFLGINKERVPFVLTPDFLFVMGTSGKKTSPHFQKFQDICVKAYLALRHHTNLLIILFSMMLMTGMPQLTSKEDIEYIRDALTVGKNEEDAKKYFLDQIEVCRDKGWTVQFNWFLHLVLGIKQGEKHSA
Sequence of PI3Kδ (O00329 whole entry, species assumed): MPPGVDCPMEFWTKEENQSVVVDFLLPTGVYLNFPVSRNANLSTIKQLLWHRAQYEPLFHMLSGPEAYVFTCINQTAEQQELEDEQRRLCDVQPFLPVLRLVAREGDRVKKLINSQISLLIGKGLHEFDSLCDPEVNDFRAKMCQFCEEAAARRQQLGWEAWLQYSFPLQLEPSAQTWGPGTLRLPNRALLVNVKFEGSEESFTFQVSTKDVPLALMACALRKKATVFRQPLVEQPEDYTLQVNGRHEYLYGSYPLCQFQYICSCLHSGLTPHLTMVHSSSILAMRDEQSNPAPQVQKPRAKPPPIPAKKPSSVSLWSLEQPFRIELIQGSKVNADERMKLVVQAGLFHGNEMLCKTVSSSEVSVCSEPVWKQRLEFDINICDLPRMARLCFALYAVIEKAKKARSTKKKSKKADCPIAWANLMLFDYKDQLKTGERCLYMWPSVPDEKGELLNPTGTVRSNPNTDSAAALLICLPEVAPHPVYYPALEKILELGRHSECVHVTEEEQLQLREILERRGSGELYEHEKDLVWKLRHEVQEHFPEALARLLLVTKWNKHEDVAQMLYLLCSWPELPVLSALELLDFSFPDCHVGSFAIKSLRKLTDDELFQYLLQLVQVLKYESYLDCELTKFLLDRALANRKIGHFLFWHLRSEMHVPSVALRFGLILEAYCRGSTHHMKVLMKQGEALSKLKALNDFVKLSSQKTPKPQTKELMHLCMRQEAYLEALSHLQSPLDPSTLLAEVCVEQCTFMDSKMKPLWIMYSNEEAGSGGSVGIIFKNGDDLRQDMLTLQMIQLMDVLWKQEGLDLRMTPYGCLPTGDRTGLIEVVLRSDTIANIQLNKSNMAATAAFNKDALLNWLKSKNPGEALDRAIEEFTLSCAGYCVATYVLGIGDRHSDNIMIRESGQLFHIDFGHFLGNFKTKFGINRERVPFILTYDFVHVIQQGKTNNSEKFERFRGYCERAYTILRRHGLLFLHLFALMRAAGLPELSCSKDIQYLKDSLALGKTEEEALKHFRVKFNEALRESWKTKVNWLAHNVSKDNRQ
Sequence of PI3Kδ (P27986 whole entry partner, species assumed): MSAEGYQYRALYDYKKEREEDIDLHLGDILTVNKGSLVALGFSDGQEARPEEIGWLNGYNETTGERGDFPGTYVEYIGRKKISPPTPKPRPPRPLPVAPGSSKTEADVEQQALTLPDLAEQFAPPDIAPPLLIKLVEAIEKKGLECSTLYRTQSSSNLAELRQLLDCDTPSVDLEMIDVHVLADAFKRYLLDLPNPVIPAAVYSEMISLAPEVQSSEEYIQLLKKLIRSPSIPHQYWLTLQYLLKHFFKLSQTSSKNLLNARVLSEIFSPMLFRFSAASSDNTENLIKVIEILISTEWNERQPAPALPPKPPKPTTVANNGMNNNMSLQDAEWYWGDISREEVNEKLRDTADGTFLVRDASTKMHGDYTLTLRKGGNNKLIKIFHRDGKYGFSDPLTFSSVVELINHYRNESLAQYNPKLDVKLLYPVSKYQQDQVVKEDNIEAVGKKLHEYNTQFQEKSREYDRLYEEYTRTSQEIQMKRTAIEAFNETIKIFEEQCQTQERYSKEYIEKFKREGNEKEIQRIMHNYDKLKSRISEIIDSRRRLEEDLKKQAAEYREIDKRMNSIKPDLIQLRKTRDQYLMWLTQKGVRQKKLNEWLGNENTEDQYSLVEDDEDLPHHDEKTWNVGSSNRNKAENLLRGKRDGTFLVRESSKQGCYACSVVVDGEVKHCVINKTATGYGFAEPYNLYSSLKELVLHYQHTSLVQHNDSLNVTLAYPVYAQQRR
Sequence of PI3Kβ (P42338 whole entry, species assumed, canonical isoform): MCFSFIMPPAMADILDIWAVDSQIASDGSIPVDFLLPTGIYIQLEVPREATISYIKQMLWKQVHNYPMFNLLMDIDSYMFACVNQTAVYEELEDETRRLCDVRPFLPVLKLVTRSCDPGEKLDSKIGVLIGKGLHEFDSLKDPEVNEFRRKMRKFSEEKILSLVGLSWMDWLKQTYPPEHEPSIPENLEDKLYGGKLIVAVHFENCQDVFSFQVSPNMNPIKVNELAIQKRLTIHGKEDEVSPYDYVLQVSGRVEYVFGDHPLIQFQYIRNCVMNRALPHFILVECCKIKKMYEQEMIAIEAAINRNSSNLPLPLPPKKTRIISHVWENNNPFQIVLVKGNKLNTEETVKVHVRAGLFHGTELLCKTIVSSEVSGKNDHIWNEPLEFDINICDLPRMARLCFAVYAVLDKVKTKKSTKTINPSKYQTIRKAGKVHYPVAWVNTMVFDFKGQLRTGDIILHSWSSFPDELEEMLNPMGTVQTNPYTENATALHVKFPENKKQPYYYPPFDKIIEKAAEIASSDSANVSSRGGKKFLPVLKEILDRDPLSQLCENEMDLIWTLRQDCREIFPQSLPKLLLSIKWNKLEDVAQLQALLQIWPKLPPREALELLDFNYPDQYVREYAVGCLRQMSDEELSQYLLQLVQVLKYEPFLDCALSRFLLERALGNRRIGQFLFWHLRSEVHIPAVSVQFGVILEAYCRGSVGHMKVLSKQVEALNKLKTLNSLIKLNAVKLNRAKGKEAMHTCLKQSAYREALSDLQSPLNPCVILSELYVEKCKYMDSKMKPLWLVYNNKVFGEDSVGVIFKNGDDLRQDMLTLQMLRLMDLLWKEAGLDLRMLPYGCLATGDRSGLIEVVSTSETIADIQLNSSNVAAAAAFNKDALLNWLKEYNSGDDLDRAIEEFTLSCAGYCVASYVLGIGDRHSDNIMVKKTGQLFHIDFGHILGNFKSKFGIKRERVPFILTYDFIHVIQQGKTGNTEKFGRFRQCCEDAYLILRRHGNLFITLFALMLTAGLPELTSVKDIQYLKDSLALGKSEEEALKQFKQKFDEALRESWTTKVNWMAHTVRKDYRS
Sequence of PI3Kβ (P27986 whole entry partner, species assumed, canonical isoform): as the sequence (P27986 whole entry partner, species assumed) above

Molecule: O=C1NC(=O)C(=Cc2ccc(-c3ccc(F)cc3)o2)S1 (stereo in doubt) [CAY10505]
- pIC50 (PI3Kγ): 7.48

Molecule: Cn1c(=O)n(-c2ccc(C(C)(C)C#N)cc2)c2c3cc(-c4cnc5ccccc5c4)ccc3ncc21 [BEZ235, Dactolisib]
- pIC50 (ATR): 7.68
- inhibition of Akt and PDK1 [1]: be a poor inhibitor to Akt and PDK1. Phase 2.

Molecule: COc1ccc(-c2cc3c(C)nc(N)nc3n([C@H]3CC[C@H](OCCO)CC3)c2=O)cn1 [PF-04691502]
- activity against Vps34, AKT, PDK1, p7056K, MEK, ERK, p38, or JNK [1]: nM, little activity against either Vps34, AKT,

Molecule: Fc1ccc2[nH]ccc2c1-c1nc(N2CCOCC2)c2sc(CN3CCN(CC4CC4)CC3)cc2n1 [PI-3065]
- selectivity ratio (PI3Kδ): > 70

Molecule: Cc1ccc([N+](=O)[O-])cc1S(=O)(=O)N(C)/N=C/c1cnc2ccc(Br)cn12 [PIK-75]
- pIC50 (DNA-PK): 8.70
- pIC50 (PI3Kγ): 7.12

Molecule: Cc1ccccc1-n1c(Cn2ncc3c(N)ncnc32)nc2cccc(C)c2c1=O [PIK-293]
- pIC50 (PI3Kδ): 6.62
- pIC50 (PI3Kγ): 5.00

Molecule: CCn1nnc2c(N3CCOCC3)nc(-c3ccc(NC(=O)Nc4ccc(C(=O)N5CCN(C)CC5)cc4)cc3)nc21 [PKI-402]
- pIC50 (mTOR): 8.52
- pIC50 (PI3Kβ): 8.15

Molecule: O=c1c(O)c(-c2ccc(O)c(O)c2)oc2cc(O)cc(O)c12 [Quercetin]
- pIC50 (class I PI3K isoforms; isoform not stated, read-out: PI3K IC50): 5.27 to 5.62

Molecule: CCn1c(=O)c(-c2cc[nH]n2)cc2c(C)nc(N)nc21 [SAR245409]
- inhibition of DNA-PK and mTOR [1]: also inhibits DNA-PK and mTOR. Phase 1/2.

Molecule: FC(F)c1nc2ccccc2n1-c1nc(N2CCOCC2)nc(N2CCOCC2)n1 [ZSTK474]
- pIC50 (class I PI3K isoforms; read-out: IC50 for PI3K isoforms stated together (PI3Kα/β/δ/γ; class I PI3K isoforms)): 7.43

Molecule: CGNKRTRGC (also: cyclic, kind and places not given here) [LyP-1, receptor is cell surface protein p32]
- homing to / recognition of macrophages in atherosclerosis plaques [2]: homes to macrophages residing in atherosclerosis plaques; also recorded: recognizes macrophages both in tumors and atherosclerotic plaques
- tumor growth (tumor): slows down tumor growth
- atherosclerotic plaque (atherosclerotic plaque): reduces atherosclerotic plaque

Molecule: CRVLRSGSC (disulfide 1-9 (inferred); also: FAM or biotin label) [TAM-homing peptide; tested with N-terminal FAM label (FAM-CRV) or biotin label (biotin-CRV)]
- localization in tumor sections (fluorescence microscopy) (4T1 breast tumors; 100 μg FAM-labeled peptide intravenously): lack of co-localization of CRV with the blood vessel marker CD31; also recorded: entered into the extravascular compartment of the tumor; also recorded: Partial co-localization of CRV with the macrophage marker F4/80; also recorded: localizes in a CD45 leukocyte-rich tumor area; also recorded: co-localizes with macrophages having the macrophage markers F4/80 and with lymphatic vessels in tumors
- organ fluorescence after injection of FAM-labeled peptide (4T1 breast tumors; 100 μg intravenously, perfusion, n=2): tumors were positive for peptide fluorescence; also recorded: Some fluorescence was seen in one lung; also recorded: kidneys were positive; also recorded: preferentially homes to tumors
- in vivo tissue distribution (FAM signal of excised organs) (4T1 breast tumors; FAM-CRV intravenously, perfusion, heart, lung, liver, kidney, spleen, tumor): mainly found in the tumors and the kidneys, with trace amounts or none in the liver, spleen, lungs and heart
- binding to J774A.1 cells versus control peptides (J774A.1 cells [3]; FAM-labeled peptide 10 μM, 1 h at 4° C., flow cytometry, controls ARA, GGSGGSKG): higher binding
- effect of excess biotin-labeled CRV on binding of FAM-CRV to J774A.1 cells (J774A.1 cells [3]; biotin-CRV 500 μM (50-fold excess), FAM-CRV 10 μM): inhibited the binding
- homing to atherosclerosis plaques [4]: does not home to plaques; also recorded: recognizes macrophages in tumors but not in atherosclerotic plaques
- ability of the host to clear the infection [5]: markedly increased ability of the host to clear the infection
- binding to different subtypes of CD11b+ cells (CD11b+Ly-6G+ vs. CD11b+Ly-6G-) [6]: binds equally well
- share of CRV-positive cells that are CD11b+ cells [6]: ~80%
- binding to Raw264.7 cells versus control peptides (Raw264.7 cells): higher binding

Molecule: GGASIT
- Count (J774A.1 cells [7]): 8677

Molecule: GGRVLRS
- Count (J774A.1 cells [7]): 62028

Molecule: GRLLRSG
- Count (J774A.1 cells [7]): 9124

Molecule: GRMLRSG
- Count (J774A.1 cells [7]): 8922

Molecule: GRVLRSS
- Count (J774A.1 cells [7]): 6774

Molecule: RSGLRSS
- Count (J774A.1 cells [7]): 9519

Molecule: RVLRSGS
- Count (J774A.1 cells [7]): 63428

Molecule: SVAYD
- Count (J774A.1 cells [7]): 10187

Molecule: SVGRSMRS
- Count (J774A.1 cells [7]): 7916
